Laboratory results reported in patent US20130116241A1, “NOVEL INHIBITOR COMPOUNDS OF PHOSPHODIESTERASE TYPE 10A” (AbbVie Inc., priority 2011, published 2013).
pIC50: −log10 of the molar value.

Biological target: human PDE10A (UniProt Q9Y233)
Assay: Measurement of PDE activity (recombinant enzyme, HTRF cAMP kit)
Type: biochemical
Conditions: Table 1, substrate 20 nM for PDE10, 60 minutes at 29 C, read-out: IC50
Protocol: The recombinant PDE proteins are used in in vitro enzymatic reaction for measurement of PDE activity. These recombinant proteins, including PDE10A (human, rat and mouse PDE10) and isoforms of PDEs 1, 3, 4, and 5, were purchased from commercial vendor BPS Bioscience. The enzymatic activity of PDEs was determined by cAMP measurement kit from CisBio (IBA) using HTRF technology.
The PDE enzymatic reaction was carried out in assay buffer (20 mM Tris-HCl pH7.5, 10 mM MgCl2, 0.1% bovine serum albumin) containing enzyme and substrate. The PDE enzymes concentration ranged from 10 pM-250 pM, depending on each enzyme's specific activity. The substrate cyclic nucleotide (cAMP or cGMP) concentration used in the assay was 20 nM for PDE10, and 100 nM for other PDEs. The inhibitory effect of compound was determined by incubating various concentration of inhibitor in the enzymatic assay. Typically, compound was serial diluted in DMSO then further diluted in assay buffer. Next, the compound at varying concentration was mixed with PDE enzyme. The reaction was initiated by addition of cyclic nucleotide substrate, and incubated for 60 minutes at 29 C. The reaction was stopped by addition of lysis buffer from assay kit. The cAMP-d2 and anti-cAMP cryptate in the lysis buffer detected the level of cAMP left from the PDE hydrolysis reaction. The PDE activity is reversely correlated with the amount of cAMP left in the reaction and can be converted to the percent activity of an uninhibited control (100%). Thus, IC50 value of inhibitor can be obtained by plotting inhibitor concentration against PDE activity at that concentration.

human PDE10A, sequence (Q9Y233 290-1055 limits assumed): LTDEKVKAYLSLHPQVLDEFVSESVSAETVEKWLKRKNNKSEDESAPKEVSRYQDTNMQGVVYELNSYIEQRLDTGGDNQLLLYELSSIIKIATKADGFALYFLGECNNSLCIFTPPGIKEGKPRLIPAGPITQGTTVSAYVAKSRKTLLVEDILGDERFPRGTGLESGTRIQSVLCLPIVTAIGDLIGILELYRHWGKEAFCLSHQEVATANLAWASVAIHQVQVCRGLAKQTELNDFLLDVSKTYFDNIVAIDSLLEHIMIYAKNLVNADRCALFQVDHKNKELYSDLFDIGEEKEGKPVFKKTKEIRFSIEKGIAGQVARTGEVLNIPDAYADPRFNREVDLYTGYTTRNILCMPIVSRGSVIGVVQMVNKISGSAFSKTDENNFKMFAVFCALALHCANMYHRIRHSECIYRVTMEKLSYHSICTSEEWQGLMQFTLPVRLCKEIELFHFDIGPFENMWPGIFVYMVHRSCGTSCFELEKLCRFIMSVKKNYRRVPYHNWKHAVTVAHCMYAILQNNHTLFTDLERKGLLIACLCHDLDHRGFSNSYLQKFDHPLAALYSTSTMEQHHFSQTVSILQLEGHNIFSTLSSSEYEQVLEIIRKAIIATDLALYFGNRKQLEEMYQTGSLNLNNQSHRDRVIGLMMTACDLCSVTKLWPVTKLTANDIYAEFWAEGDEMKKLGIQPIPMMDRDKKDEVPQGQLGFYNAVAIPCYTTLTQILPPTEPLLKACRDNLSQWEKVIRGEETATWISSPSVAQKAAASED

Row | SMILES | pIC50
1 | O=c1c2c(NC3COC3)cccc2ccn1C1CC1c1ccc2ccccc2n1 (single isomer, unassigned; (+)) [Example 235a, (+) anti 8-(oxetan-3-ylamino)-2-(2-(quinolin-2-yl)cyclopropyl)isoquinolin-1(2H)-one] | > 7.00
2 | O=c1c2c(-c3cccnc3)cccc2ccn1C1CC1c1ccc2ccccc2n1 (single isomer, unassigned; (+)) [Example 239a, (+) anti 8-(pyridin-3-yl)-2-(2-(quinolin-2-yl)cyclopropyl)isoquinolin-1(2H)-one] | 6.70 to 7.00
3 | O=c1c2c(-c3ccncc3)cccc2ccn1C1CC1c1ccc2ccccc2n1 (single isomer, unassigned; (-)) [Example 222b, (−) 8-(pyridin-4-yl)-2-(2-(quinolin-2-yl)cyclopropyl)isoquinolin-1(2H)-one] | > 7.00
4 | O=c1c2c(-c3cccnc3)cccc2ccn1C1CC1c1ccc2ccccc2n1 (single isomer, unassigned; (-)) [Example 239b, (−) anti 8-(pyridin-3-yl)-2-(2-(quinolin-2-yl)cyclopropyl)isoquinolin-1(2H)-one] | > 7.00
5 | O=c1c2c(-c3ccncc3)csc2c(-c2ccncc2)nn1CCc1ccc2ccccc2n1 [Example 1, 3,7-Di(pyridin-4-yl)-5-[2-(quinolin-2-yl)ethyl]thieno[2,3-d]pyridazin-4(5H)-one] | > 7.00
6 | O=c1c2ccsc2c(-c2ccncc2)nn1CCc1ccc2ccccc2n1 [Example 2, 7-(Pyridin-4-yl)-5-[2-(quinolin-2-yl)ethyl]thieno[2,3-d]pyridazin-4(5H)-one] | > 7.00
7 | O=c1c2c(-c3ccncc3)csc2cnn1CCc1ccc2ccccc2n1 [Example 3, 3-(Pyridin-4-yl)-5-[2-(quinolin-2-yl)ethyl]thieno[2,3-d]pyridazin-4(5H)-one] | > 7.00
8 | O=c1c2c(-c3ccncc3)csc2c(-c2ccncc2)nn1CCc1ccccn1 [Example 5, 3,7-Di(pyridin-4-yl)-5-[2-(pyridin-2-yl)ethyl]thieno[2,3-d]pyridazin-4(5H)-one] | > 7.00
9 | Cc1ccc(-c2csc3cnn(CCc4ccc5ccccc5n4)c(=O)c23)cc1 [Example 7, 3-(4-methylphenyl)-5-[2-(quinolin-2-yl)ethyl]thieno[2,3-d]pyridazin-4(5H)-one] | 6.30 to 6.70
10 | CC(C)c1ccc(-c2csc3cnn(CCc4ccc5ccccc5n4)c(=O)c23)cc1 [Example 8, 3-[4-(propan-2-yl)phenyl]-5-[2-(quinolin-2-yl)ethyl]thieno[2,3-d]pyridazin-4(5H)-one] | > 7.00
11 | N#Cc1ccc(-c2csc3cnn(CCc4ccc5ccccc5n4)c(=O)c23)cc1 [Example 10, 4-{4-oxo-5-[2-(quinolin-2-yl)ethyl]-4,5-dihydrothieno[2,3-d]pyridazin-3-yl}benzonitrile] | > 7.00
12 | COc1ccc(-c2csc3cnn(CCc4ccc5ccccc5n4)c(=O)c23)cc1 [Example 11, 3-(4-methoxyphenyl)-5-[2-(quinolin-2-yl)ethyl]thieno[2,3-d]pyridazin-4(5H)-one] | 6.70 to 7.00
13 | O=c1c2c(-c3ccc(F)cc3)csc2cnn1CCc1ccc2ccccc2n1 [Example 12, 3-(4-fluorophenyl)-5-[2-(quinolin-2-yl)ethyl]thieno[2,3-d]pyridazin-4(5H)-one] | > 7.00
14 | N#CCc1ccc(-c2csc3cnn(CCc4ccc5ccccc5n4)c(=O)c23)cc1 [Example 15, (4-{4-oxo-5-[2-(quinolin-2-yl)ethyl]-4,5-dihydrothieno[2,3-d]pyridazin-3-yl}phenyl)acetonitrile] | 6.30 to 6.70
15 | O=c1c2c(-c3ccc(O)cc3)csc2cnn1CCc1ccc2ccccc2n1 [Example 16, 3-(4-hydroxyphenyl)-5-[2-(quinolin-2-yl)ethyl]thieno[2,3-d]pyridazin-4(5H)-one] | > 7.00
16 | O=c1c2c(-c3ccccc3Cl)csc2cnn1CCc1ccc2ccccc2n1 [Example 17, 3-(2-chlorophenyl)-5-[2-(quinolin-2-yl)ethyl]thieno[2,3-d]pyridazin-4(5H)-one] | 6.70 to 7.00
17 | Cc1ccccc1-c1csc2cnn(CCc3ccc4ccccc4n3)c(=O)c12 [Example 18, 3-(2-methylphenyl)-5-[2-(quinolin-2-yl)ethyl]thieno[2,3-d]pyridazin-4(5H)-one] | 6.30 to 6.70
18 | O=c1c2c(-c3ccccc3F)csc2cnn1CCc1ccc2ccccc2n1 [Example 20, 3-(2-fluorophenyl)-5-[2-(quinolin-2-yl)ethyl]thieno[2,3-d]pyridazin-4(5H)-one] | > 7.00
19 | O=c1c2c(-c3ccccc3O)csc2cnn1CCc1ccc2ccccc2n1 [Example 23, 3-(2-hydroxyphenyl)-5-[2-(quinolin-2-yl)ethyl]thieno[2,3-d]pyridazin-4(5H)-one] | > 7.00

Row | SMILES | pIC50
20 | COc1cccc(-c2csc3cnn(CCc4ccc5ccccc5n4)c(=O)c23)c1 [Example 26, 3-(3-methoxyphenyl)-5-[2-(quinolin-2-yl)ethyl]thieno[2,3-d]pyridazin-4(5H)-one] | 6.30 to 6.70
21 | N#Cc1cccc(-c2csc3cnn(CCc4ccc5ccccc5n4)c(=O)c23)c1 [Example 29, 3-[4-Oxo-5-(2-quinolin-2-yl-ethyl)-4,5-dihydro-thieno[2,3-d]pyridazin-3-yl}-benzonitrile] | > 7.00
22 | O=c1c2c(-c3cccc(F)c3)csc2cnn1CCc1ccc2ccccc2n1 [Example 30, 3-(3-fluorophenyl)-5-[2-(quinolin-2-yl)ethyl]thieno[2,3-d]pyridazin-4(5H)-one] | 6.70 to 7.00
23 | O=c1c2c(-c3cccc(O)c3)csc2cnn1CCc1ccc2ccccc2n1 [Example 31, 3-(3-hydroxyphenyl)-5-[2-(quinolin-2-yl)ethyl]thieno[2,3-d]pyridazin-4(5H)-one] | 6.70 to 7.00
24 | CN(C)C(=O)c1cccc(-c2csc3cnn(CCc4ccc5ccccc5n4)c(=O)c23)c1 [Example 32, N,N-dimethyl-3-{4-oxo-5-[2-(quinolin-2-yl)ethyl]-4,5-dihydrothieno[2,3-d]pyridazin-3-yl}benzamide] | 6.30 to 6.70
25 | O=c1c2c(-c3cccs3)csc2cnn1CCc1ccc2ccccc2n1 [Example 34, 5-[2-(quinolin-2-yl)ethyl]-3-(thiophen-2-yl)thieno[2,3-d]pyridazin-4(5H)-one] | 6.70 to 7.00
26 | O=c1c2c(-c3ccc4cc[nH]c4c3)csc2cnn1CCc1ccc2ccccc2n1 [Example 36, 3-(1H-indol-6-yl)-5-[2-(quinolin-2-yl)ethyl]thieno[2,3-d]pyridazin-4(5H)-one] | > 7.00
27 | O=c1c2c(-c3cncnc3)csc2cnn1CCc1ccc2ccccc2n1 [Example 37, 3-(pyrimidin-5-yl)-5-[2-(quinolin-2-yl)ethyl]thieno[2,3-d]pyridazin-4(5H)-one] | > 7.00
28 | COc1ncccc1-c1csc2cnn(CCc3ccc4ccccc4n3)c(=O)c12 [Example 38, 3-(2-methoxypyridin-3-yl)-5-[2-(quinolin-2-yl)ethyl]thieno[2,3-d]pyridazin-4(5H)-one] | 6.30 to 6.70
29 | O=c1c2c(-c3cccnc3)csc2cnn1CCc1ccc2ccccc2n1 [Example 39, 3-(pyridin-3-yl)-5-[2-(quinolin-2-yl)ethyl]thieno[2,3-d]pyridazin-4(5H)-one] | > 7.00
30 | O=c1c2c(-c3ccoc3)csc2cnn1CCc1ccc2ccccc2n1 [Example 41, 3-(furan-3-yl)-5-[2-(quinolin-2-yl)ethyl]thieno[2,3-d]pyridazin-4(5H)-one] | > 7.00
31 | O=c1c2c(-c3cccc4cnccc34)csc2cnn1CCc1ccc2ccccc2n1 [Example 44, 3-(isoquinolin-5-yl)-5-[2-(quinolin-2-yl)ethyl]thieno[2,3-d]pyridazin-4(5H)-one] | 6.30 to 6.70
32 | O=c1c2c(-c3cccc4[nH]ccc34)csc2cnn1CCc1ccc2ccccc2n1 [Example 45, 3-(1H-indol-4-yl)-5-(2-quinolin-2-yl-ethyl)-5H-thieno[2,3-d]pyridazin-4-one] | 6.70 to 7.00
33 | O=c1c2c(-c3ccc4c(c3)CCO4)csc2cnn1CCc1ccc2ccccc2n1 [Example 46, 3-(2,3-dihydrobenzofuran-5-yl)-5-(2-quinolin-2-yl-ethyl)-5H-thieno[2,3-d]pyridazin-4-one] | > 7.00
34 | O=c1c2c(-c3cccc4ncccc34)csc2cnn1CCc1ccc2ccccc2n1 [Example 47, 3-(quinolin-5-yl)-5-[2-(quinolin-2-yl)ethyl]thieno[2,3-d]pyridazin-4(5H)-one] | 6.70 to 7.00
35 | Cc1noc(C)c1-c1csc2cnn(CCc3ccc4ccccc4n3)c(=O)c12 [Example 48, 3-(3,5-dimethyl-1,2-oxazol-4-yl)-5-[2-(quinolin-2-yl)ethyl]thieno[2,3-d]pyridazin-4(5H)-one] | > 7.00
36 | COc1ccc(-c2csc3cnn(CCc4ccc5ccccc5n4)c(=O)c23)cn1 [Example 49, 3-(6-methoxypyridin-3-yl)-5-[2-(quinolin-2-yl)ethyl]thieno[2,3-d]pyridazin-4(5H)-one] | 6.70 to 7.00
37 | O=c1c2c(-c3ccc4c(c3)OCCO4)csc2cnn1CCc1ccc2ccccc2n1 [Example 50, 3-(2,3-dihydro-1,4-benzodioxin-6-yl)-5-[2-(quinolin-2-yl)ethyl]thieno[2,3-d]pyridazin-4(5H)-one] | 6.30 to 6.70
